Common to all, as to format: cell-based
Holding throughout (settings): Cardiac atrium

For experiment [1], the system named is Pelophylax lessonae. Kind of experiment: Inhibition of NOS2 in frog atrial myocytes.
The test system of experiment [2] is Pelophylax lessonae. Kind of experiment: Decrease in cellular cGMP level in frog atrial myocytes at 4 uM by immunoassay. The arrangement: scale not given: the % may be the effect or the level left.
The subject of experiment [3] is Pelophylax lessonae. In words: Activity at L-type calcium channel in frog atrial myocytes assessed as increase in Sr2+ current.
For experiment [4], the system named is Pelophylax lessonae. Kind of experiment: Inhibition of PP2A in frog atrial myocytes by microscystin assay.

Structures are written as SMILES. Activity calls are given as the source filed them. The rule behind the calls is not given here.

As for `Cc1cc(O)c2c(=O)c3c(O)cc(O)c4c5c(O)cc(O)c6c(=O)c7c(O)cc(C)c8c1c2c(c34)c(c78)c65`, the outcome in the experiment on Pelophylax lessonae [1] and in the experiment on Pelophylax lessonae [4] was inactive. Besides, the Activity is 69% in the experiment on Pelophylax lessonae [2] and “Dose-dependent effect” in the experiment on Pelophylax lessonae [3].

Values taken from ChEMBL document CHEMBL1142100, “Hypericin activates L-type Ca2+ channels in cardiac myocytes” (J Nat Prod, 2007).
